Laboratory results taken from patent US7649012B2, “Compounds, pharmaceutical compositions containing same, and methods of use for same” (FASgen, Inc., priority 2002, dated 2010).
In brackets after ≈: the same amount, converted by molar mass. Where two headings read alike, the source gives them in different places.

Key:
[1] = test system: MCF-7 human breast cancer cells; experiment: XTT cytotoxicity assay; assay type: cell-based; conditions: MCF7, MCF-7, 72 hours, some cells marked (M)
Protocol: The XTT assay is a non-radioactive alternative for the [^51 Cr] release cytotoxicity assay. XTT is a tetrazolium salt that is reduced to a formazan dye only by metabolically active, viable cells. The reduction of XTT is measured spectrophotometrically as OD490-OD650.
To measure the cytotoxicity of specific compounds against cancer cells, 9×10^3 MCF-7 human breast cancer cells, obtained from the American Type Culture Collection are plated per well in 96 well plates in DMEM medium with 10% fetal bovine serum, insulin, penicillin, and streptomycin. Following overnight culture at 37° C. and 5% CO2, the compounds to be tested, dissolved in DMSO, are added to the wells in 1 μl volume at the following concentrations: 80, 40, 20, 10, 5, 2.5, 1.25, and 0.625 μg/ml in triplicate. Additional concentrations are tested if required. 1 μl of DMSO is added to triplicate wells are the vehicle control. C75 is run at 40, 20, […], and 5 μg/ml in triplicate as positive controls. After 72 hours of incubation, cells are incubated for 4 hours with the XTT reagent as per manufacturer's instructions (Cell Proliferation Kit II (XTT) Roche). Plates are read at OD490 and OD650 on a Molecular Devices SpectraMax Plus Spectrophotometer. Three wells containing the XTT reagent without cells serve as the plate blank. XTT data are reported as OD490-OD650-Averages and standard error of the mean are computed using SOFTmax Pro software (Molecular Dynamics).
The IC50 for the compounds is defined as the concentration of drug leading to a 50% reduction in OD490-OD650 compared to controls. The OD490-OD650 are computed by the SOFTmax PRO software (Molecular Devices) for each compound concentration. IC50 is calculated by linear regression, plotting the FAS activity as percent of control versus drug concentrations. Linear regression, best-fit line, r^2, and 95% confidence intervals are determined using Prism Version 3.0 (Graph Pad Software).

[2] = test system: MCF-7 human breast cancer cells; experiment: Crystal violet cell growth assay; assay type: cell-based; conditions: MCF7, MCF-7, 72 hours, read-out: Cr. Violet(IC50)
Protocol: The crystal violet assay measure cell growth but not cytotoxicity. This assay employs crystal violet staining of fixed cells in 96-well plates with subsequent solubilization and measurement of OD490 on a spectrophotometer. The OD490 corresponds to cell growth per unit time measured. Cells are treated with the compounds of interest or vehicle controls and IC50 for each compound is computed.
To measure the cytotoxicity of specific compounds against cancer cells, 5×10^4 MCF-7 human breast cancer cells, obtained from the American Type Culture Collection are plated per well in 24 well plates in DMEM medium with 10% fetal bovine serum, penicillin, and streptomycin. Following overnight culture at 37° C. and 5% CO2, the compounds to be tested, dissolved in DMSO, are added to the wells in 1 μl volume at the following concentrations: 50, 40, 30, 20, and 10 μg/ml in triplicate. Additional concentrations are tested if required. 1 μl of DMSO is added to triplicate wells are the vehicle control. C75 is run at 10, and 5 μg/ml in triplicate as positive controls.
After 72 hours of incubation, cells are stained with 0.5 ml of Crystal Violet stain (0.5% in 25% methanol) in each well. After 10 minutes, wells are rinsed, air dried, and then solubilized with 0.5 ml 10% sodium dodecylsulfate with shaking for 2 hours.

[3] = Weight loss screen in Balb/C mice; assay type: in vivo; conditions: for change in vivo at 60 mg/kg: ip, 60 mg/kg intraperitoneally
Protocol: Balb/C mice (Jackson Labs) are utilized for the initial weight loss screening. Animals are housed in temperature and 12 hour day/night cycle rooms and fed mouse chow and water ad lib. Three mice are utilized for each compound tested with vehicle controls in triplicate per experiment. For the experiments, mice are housed separately for each compound tested three mice to a cage. […] Mice are observed and weighed daily; average weights and standard errors are computed with Excel (Microsoft). The experiment continues until treated animals reach their pretreatment weights. […]

[4] = test system: Pseudomonas aeruginosa (ATCC # 27853); experiment: Broth microdilution MIC; assay type: cell-based; conditions: for PSAE/MH(MIC): Mueller Hinton Broth; for PSAE/Tsoy(MIC): Trypticase Soy Broth
Protocol: (§1) A broth microdilution assay is used to assess the antimicrobial activity of the compounds. […] Microorganisms tested include Staphylococcus aureus (ATCC # 29213), Enterococcus faecalis (ATCC # 29212), Pseudomonas aeruginosa (ATCC # 27853), and Escherichia coli (ATCC # 25922). The assay is performed in two growth media, Mueller Hinton Broth and Trypticase Soy Broth. […] Colonies are suspended in sterile broth so that the turbidity matches the turbidity of a 0.5 McFarland standard. The inoculum is diluted 1:10 in sterile broth (Mueller Hinton or Trypticase soy) and 195 ul is dispensed per well of a 96-well plate. The compounds to be tested, dissolved in DMSO, are added to the wells in 5 ul volume at the following concentrations: 25, 12.5, 6.25, 3.125, 1.56 and 0.78 ug/ml in duplicate. Additional concentrations are tested if required. 5 ul of DMSO added to duplicate wells are the vehicle control. Serial dilutions of positive control compounds, vancomycin (E. faecalis and S. aureus) and tobramycin (E. coli and P. aeruginosa), are included in each run. After 24 hours of incubation at 37° C., plates are read at OD600 on a Molecular Devices SpectraMax Plus Spectrophotometer. Average OD600 values are computed using SOFTmax Pro Software (Molecular Devices) and MIC values are determined by linear regression analysis using Prism version 3.02 (Graph Pad Software, San Diego).

[5] = test system: Staphylococcus aureus (ATCC # 29213); experiment: Broth microdilution MIC; assay type: cell-based; conditions: for MIC: Staphylococcus aureus, ATCC29213
Protocol: as §1

[6] = test system: Enterococcus faecalis (ATCC # 29212); experiment: Broth microdilution MIC; assay type: cell-based; conditions: for MIC: Enterococcus faecalis, ATCC29212
Protocol: as §1

[7] = test system: Escherichia coli (ATCC # 25922); experiment: Broth microdilution MIC; assay type: cell-based; conditions: for MIC: Escherichia coli, ATCC25922, read-out: Ecoli/MH(MIC); for MIC / Ecoli/MH(MIC): Mueller Hinton Broth; for Ecoli/Tsoy(MIC): Trypticase Soy Broth
Protocol: as §1

[8] = Mueller Hinton Broth, read-out: SA/MH(MIC)
[9] = Trypticase Soy Broth, read-out: SA/Tsoy(MIC)
[10] = Trypticase Soy Broth, read-out: EF/Tsoy(MIC)
[11] = Mus musculus, 72 h, day3, read-out: Weight Loss
[12] = Mueller Hinton Broth, read-out: EF/MH(MIC)

| SMILES | IC50 [2] [µg/mL] | PSAE/MH(MIC) [4] | PSAE/Tsoy(MIC) [4] | MIC [5, 8] [µg/mL] | MIC [5, 9] [µg/mL] | MIC [6, 10] [µg/mL] | Ecoli/Tsoy(MIC) [7] | MIC [6, 12] [µg/mL] | Ecoli/MH(MIC) [7] | SA/MH(MIC) ([5]; Mueller Hinton Broth) | IC50 [1] [µg/mL] | change in vivo at 15 mg/kg ([3]; Mus musculus, 24 h, read-out: Weight Loss) [%] | change in vivo at 30 mg/kg ([3]; Mus musculus, 48 h, read-out: Weight Loss) [%] | Deaths in weight loss screen ([3]; 60 mg/kg, day2, three mice) | change in vivo at 30 mg/kg ([3]; Mus musculus, 72 h, 30 mg/kg, day3, read-out: Weight Loss) [%] | EF/MH(MIC) ([6]; Mueller Hinton Broth) | MIC [7] [µg/mL] | change in vivo at 60 mg/kg [3, 11] [%] | change in vivo at 30 mg/kg ([3]; Mus musculus, 96 h, 30 mg/kg, day4, read-out: Weight Loss) [%] | change in vivo at 60 mg/kg ([3]; Mus musculus, 48 h, day2, read-out: Weight Loss) [%] |
| --- | --- | --- | --- | --- | --- | --- | --- | --- | --- | --- | --- | --- | --- | --- | --- | --- | --- | --- | --- | --- |
| C=CCNC(=O)COC1=CC(=O)S[C@]1(C)CCCCCCCCCC (racemic) | 10.4 (≈ 28.3 µM) | Neg | Neg | 28 (≈ 76.2 µM) | 31 (≈ 84.3 µM) |  |  |  |  |  | 12.1 ± 0.6 (≈ 32.9 µM) | 0 | 1.8 |  |  |  |  |  |  |  |
| C#CCOC1CC(=O)S[C@]1(C)CCCCCC (mixture of isomers) | 12.1 ± 1.5 | Neg | Neg | 53 | 80 | 83 | Neg |  |  |  | 8.9 ± 2.3 |  |  | 3 of 3 dead | 5.9 | Neg | 203 |  |  |  |
| C=C/C(C)=C/C1(C)SC(=O)C=C1O (centres unmarked) | > 50 |  |  | 235 (≈ 1200 µM) | 102 (≈ 520 µM) |  |  | 220 (≈ 1120 µM) |  |  | > 80 |  |  |  |  |  | 290 (≈ 1480 µM) | 7.8 |  |  |
| CCCCCCCC[C@@]1(C)SC(=O)C(C(=O)C(F)(F)F)=C1O (racemic) | 45.3 (≈ 134 µM) | Neg | Neg | 54 (≈ 160 µM) | 65 (≈ 192 µM) |  |  |  |  |  | 18.4 ± 2.7 (≈ 54.4 µM) |  |  |  |  |  |  |  |  |  |
| C=CCN(C)C(=O)COC1=CC(=O)SC1(C)CCCCCCCC (centres unmarked) | 9 (≈ 25.5 µM) |  |  |  |  |  |  |  |  |  | 9.2 ± 2.2 (≈ 26 µM) |  |  |  |  |  |  | 1.5 |  |  |
| CCCCCCCCC1(C)SC(=O)C=C1OC(=O)OCC (centres unmarked) | 31.4 ± 5.7 (≈ 99.9 µM) |  |  | 45 (≈ 143 µM) | 83 (≈ 264 µM) | 62 (≈ 197 µM) |  | 86 (≈ 273 µM) |  |  | 15.1 ± 2.6 (≈ 48 µM) |  |  |  |  |  |  |  | 1.3 | 6.9 |

Second part, led by results:

| IC50 [2] [µg/mL] | PSAE/MH(MIC) [4] | PSAE/Tsoy(MIC) [4] | MIC [5, 8] [µg/mL] | MIC [5, 9] [µg/mL] | MIC [6, 10] [µg/mL] | Ecoli/Tsoy(MIC) [7] | MIC [6, 12] [µg/mL] | Ecoli/MH(MIC) [7] | SA/MH(MIC) ([5]; Mueller Hinton Broth) | SMILES | IC50 [1] [µg/mL] | change in vivo at 15 mg/kg ([3]; Mus musculus, 24 h, read-out: Weight Loss) [%] | change in vivo at 30 mg/kg ([3]; Mus musculus, 48 h, read-out: Weight Loss) [%] | Deaths in weight loss screen ([3]; 60 mg/kg, day2, three mice) | change in vivo at 30 mg/kg ([3]; Mus musculus, 72 h, 30 mg/kg, day3, read-out: Weight Loss) [%] | EF/MH(MIC) ([6]; Mueller Hinton Broth) | MIC [7] [µg/mL] | change in vivo at 60 mg/kg [3, 11] [%] | change in vivo at 30 mg/kg ([3]; Mus musculus, 96 h, 30 mg/kg, day4, read-out: Weight Loss) [%] | change in vivo at 60 mg/kg ([3]; Mus musculus, 48 h, day2, read-out: Weight Loss) [%] |
| --- | --- | --- | --- | --- | --- | --- | --- | --- | --- | --- | --- | --- | --- | --- | --- | --- | --- | --- | --- | --- |
| 15.9 ± 1.9 (≈ 58.8 µM) | Neg | Neg | 132 (≈ 488 µM) | 108 (≈ 399 µM) | 94 (≈ 348 µM) | Neg | 208 (≈ 769 µM) | Neg |  | CCCCCCCCC1(C)SC(=O)C(C)=C1OC (centres unmarked) | 17.3 ± 5.9 (≈ 64 µM) |  |  |  |  |  |  |  |  |  |
| > 50 | Neg | Neg |  | 97 | 91 | Neg | 133 | Neg | Neg | C=CCC1(C)C(=O)S[C@](C)(CCCCCCCC)C1=O (mixture of isomers) | 50.4 ± 4.7 |  |  |  |  |  |  |  |  |  |
| 20.9 (≈ 89.2 µM) | Neg | Neg | 83 (≈ 354 µM) | 129 (≈ 551 µM) | 189 (≈ 807 µM) | Neg | 170 (≈ 726 µM) | Neg |  | COC1=CC(=O)SC1(C)Cc1ccccc1 (centres unmarked) | 61.3 ± 3.9 (≈ 262 µM) |  |  |  |  |  |  |  |  |  |
